What is called Papp B→A is the apparent permeability from the basolateral to the apical side of a cell layer.

In data set [1] the test system is Caco-2 cells. The experiment in a line: Flux assay using Caco-2 cells (cell permeability). It counts as in vitro ADME. Conditions: 2 hours incubation. The method, then:
(§1) The cell permeability of a substance can be investigated by means of in vitro testing in a flux assay using Caco-2 cells [M. D. Troutman and D. R. Thakker, Pharm. Res. 20 (8), 1210-1224 (2003)]. For this purpose, the cells were cultured for 15-16 days on 24-well filter plates. For the determination of permeation, the respective working example was applied in a HEPES buffer to the cells either apically (A) or basally (B) and incubated for 2 hours. After 0 hours and after 2 hours, samples were taken from the cis and trans compartments. The samples were separated by HPLC (Agilent 1200, Böblingen, Germany) using reverse phase columns. The HPLC system was coupled via a Turbo Ion Spray Interface to a Triple Quadropol mass spectrometer API 4000 (Applied Biosystems Applera, Darmstadt, Germany). The permeability was evaluated on the basis of a Papp value, which was calculated using the formula published by Schwab et al. [D. Schwab et al., J. Med. Chem. 46, 1716-1725 (2003)].
On the technique in general: Passage across Caco-2 layers is used to estimate intestinal permeability.

For data set [2], the system named is tubulin. Nature of the data set: Fluorescence-based microtubule polymerisation assay. It counts as biochemical. Conditions: rate at 1 μM MMAF set at 100%. On the procedure:
Tubulin polymerization was investigated using the “Fluorescence-based Microtubule Polymerisation Assay Kit” from Cytoskeleton (Denver, Colo., USA; order number: BK011). With this assay, GTP is added to unpolymerized tubulin, allowing polymerization to take place spontaneously. The assay is based on the binding of the fluorophore 4′,6-diamidino-2-phenylindole (DAPI) to tubulin. Free and bound DAPI can be differentiated on the basis of different emission spectra.
In addition to the buffer control, paclitaxel, with a polymerization-increasing effect, and vinblastin, with a polymerization inhibiting effect, were run additionally as assay controls. Measurement was carried out using 96-well plates with a half base area. The kinetics of the tubulin polymerization were monitored in a Fluorimeter at 37° C. for 1 hour. The excitation wavelength was 355 nm, and emission was monitored at 460 nm. For the region of linear increase within the first 10 minutes, a calculation was made of the change in fluorescence per minute (ΔF/min), which represents the polymerization rate of the microtubuli. The potency of the test substances was quantified on the basis of their respective reduction of the polymerization rate. Table 6 below gives data for the influence of representative working examples on tubulin polymerization.

The nature of data set [3]: Flux assay using Caco-2 cells (cell permeability). It counts as in vitro ADME. The note with it: human, 2 hours incubation. The method, then:
as §1

Structures can show the parent of a compound that is named as a salt. Where a SMILES comes first, the peptide text is derived from it. [ ]: non-standard residue; d: D form. The star is where a group is joined. X2 = CC(C)[C@@H](C(=O)*)N(C)CCCCCCN1C(=O)CC(SC[C@H](N)C(=O)O)C1=O; X3 = CC(C)[C@@H](C(=O)*)N(C)CCOCCOCCOCCC(=O)NCCCC[C@H](N)C(=O)O; X1 = CC(C)[C@@H](C(=O)*)N(C)CCCCCC(=O)NCCCC[C@H](N)C(=O)O; Dolaproine = CO[C@@H]([C@@H]1CCCN1)[C@@H](C)C(=O)O; Dil = CC[C@H](C)[C@H](NC)[C@@H](CC(=O)O)OC; X4 = C[C@@H](N*)[C@@H](O)c1ccccc1; Oxazinan2yl(1,2) = C1CCN(*)OC1; NMeV = CN[C@H](C(=O)O)C(C)C

On to `CC[C@H](C)[C@@H]([C@@H](CC(=O)N1CCC[C@H]1[C@H](OC)[C@@H](C)C(=O)N[C@H](C)[C@@H](O)c1ccccc1)OC)N(C)C(=O)[C@@H](NC(=O)[C@@H](NC)C(C)C)C(C)C` [monomethylauristatin E (MMAE), monomethylauristatin E, reference compound] (H-[NMeV]V[Dil][Dolaproine]-X4), for which the “Papp (B-A)” value in data set [1] turned out to be 73 nm/s.

`CC[C@H](C)[C@@H]([C@@H](CC(=O)N1CCC[C@H]1[C@H](OC)[C@@H](C)C(=O)N[C@@H](Cc1c[nH]c2ccccc12)C(=O)O)OC)N(C)C(=O)[C@@H](NC(=O)[C@H](C(C)C)N(C)CCCCCC(=O)NCCCC[C@H](N)C(=O)O)C(C)C` [Example 19, N-(6-{[(5S)-5-Amino-5-carboxypentyl]amino}-6-oxohexyl)-N-methyl-L-valyl-N-[(3R,4S,5S)-1-{(2S)-2-[(1R,2R)-3-{[(1S)-1-carboxy-2-(1H-indol-3-yl)ethyl]amino}-1-methoxy-2-methyl-3-oxopropyl]pyrrolidin-1-yl}-3-methoxy-5-methyl-1-oxoheptan-4-yl]-N-methyl-L-valinamide] (X1-V[Dil][Dolaproine]W-OH): the figures for the “Tubulin polymerization in the presence of toxophore” value (from here on “Tubulin polymerization”) in data set [2] (toxophore 1 μM) and in data set [2] (toxophore 10 μM) were 80% and 14%, respectively. Also, the basolateral-to-apical permeability (Papp B→A) at 2 h in data set [3] came out at 0.1 ×10⁻⁶ cm/s.

Turning to `CC[C@H](C)[C@@H]([C@@H](CC(=O)N1CCC[C@H]1[C@H](OC)[C@@H](C)C(=O)N[C@@H](Cc1c[nH]c2ccccc12)C(N)=O)OC)N(C)C(=O)[C@@H](NC(=O)[C@H](C(C)C)N(C)CCCC(=O)NNC(=O)CCCCCN1C(=O)CC(SC[C@H](N)C(=O)O)C1=O)C(C)C` (stereo partly drawn) [Example 21, N-(4-{2-[6-(3-{[(2R)-2-Amino-2-carboxyethyl]sulphanyl}-2,5-dioxopyrrolidin-1-yl)hexanoyl]hydrazino}-4-oxobutyl)-N-methyl-L-valyl-N-[(3R,4S,5S)-1-{(2S)-2-[(1R,2R)-3-{[(2S)-1-amino-3-(1H-indol-3-yl)-1-oxopropan-2-yl]amino}-1-methoxy-2-methyl-3-oxopropyl]pyrrolidin-1-yl}-3-methoxy-5-methyl-1-oxoheptan-4-yl]-N-methyl-L-valinamide], the “Tubulin polymerization” value in data set [2] (toxophore 1 μM) was 88%; in data set [2] (toxophore 10 μM) it was 25%. In data set [3], this compound gave a Papp B→A at 2 h of 0.2 ×10⁻⁶ cm/s.

For the compound `CC[C@H](C)[C@@H]([C@@H](CC(=O)N1CCC[C@H]1[C@H](OC)[C@@H](C)C(=O)N[C@@H](Cc1c[nH]c2ccccc12)C(=O)N1CCCCO1)OC)N(C)C(=O)[C@@H](NC(=O)[C@H](C(C)C)N(C)CCOCCOCCOCCC(=O)NCCCC[C@H](N)C(=O)O)C(C)C` [Example 20, N-[(18S)-18-Amino-18-carboxy-12-oxo-3,6,9-trioxa-13-azaoctadec-1-yl]-N-methyl-L-valyl-N-[(3R,4S,5S)-1-{(2S)-2-[(1R,2R)-3-{[(2S)-3-(1H-indol-3-yl)-1-(1,2-oxazinan-2-yl)-1-oxopropan-2-yl]amino}-1-methoxy-2-methyl-3-oxopropyl]pyrrolidin-1-yl}-3-methoxy-5-methyl-1-oxoheptan-4-yl]-N-methyl-L-valinamide trifluoroacetate] (X3-V[Dil][Dolaproine]W-{Oxazinan2yl(1,2)}), the entries for the “Tubulin polymerization” value in data set [2] (toxophore 1 μM) and in data set [2] (toxophore 10 μM) were 60% and 0%, respectively.

In turn, `CC[C@H](C)[C@@H]([C@@H](CC(=O)N1CCC[C@H]1[C@H](OC)[C@@H](C)C(=O)N[C@@H](Cc1c[nH]c2ccccc12)C(=O)O)OC)N(C)C(=O)[C@@H](NC(=O)[C@H](C(C)C)N(C)CCCCCCN1C(=O)CC(SC[C@H](N)C(=O)O)C1=O)C(C)C` (stereo partly drawn) [Example 23, N-[6-(3-{[(2R)-2-Amino-2-carboxyethyl]sulphanyl}-2,5-dioxopyrrolidin-1-yl)hexyl]-N-methyl-L-valyl-N-[(3R,4S,5S)-1-{(2S)-2-[(1R,2R)-3-{[(1S)-1-carboxy-2-(1H-indol-3-yl)ethyl]amino}-1-methoxy-2-methyl-3-oxopropyl]pyrrolidin-1-yl}-3-methoxy-5-methyl-1-oxoheptan-4-yl]-N-methyl-L-valinamide] (X2-V[Dil][Dolaproine]W-OH) gave an apparent permeability from basolateral to apical (Papp B→A) at 2 h in data set [3] of 0.1 ×10⁻⁶ cm/s.

As to `CC[C@H](C)[C@@H]([C@@H](CC(=O)N1CCC[C@H]1[C@H](OC)[C@@H](C)C(=O)N[C@@H](Cc1c[nH]c2ccccc12)C(=O)N1CCCCO1)OC)N(C)C(=O)[C@@H](NC(=O)[C@H](C(C)C)N(C)CCCCCC(=O)NCCCC[C@H](N)C(=O)O)C(C)C` [Example 18, N-(6-{[(5S)-5-Amino-5-carboxypentyl]amino}-6-oxohexyl)-N-methyl-L-valyl-N-[(3R,4S,5S)-1-{(2S)-2-[(1R,2R)-3-{[(2S)-3-(1H-indol-3-yl)-1-(1,2-oxazinan-2-yl)-1-oxopropan-2-yl]amino}-1-methoxy-2-methyl-3-oxopropyl]pyrrolidin-1-yl}-3-methoxy-5-methyl-1-oxoheptan-4-yl]-N-methyl-L-valinamide trifluoroacetate] (X1-V[Dil][Dolaproine]W-{Oxazinan2yl(1,2)}), the “Tubulin polymerization” value in data set [2] (toxophore 1 μM) turned out to be 45%; in data set [2] (toxophore 10 μM) it was 1%. This compound displayed a Papp B→A at 2 h in data set [3] of 0.2 ×10⁻⁶ cm/s.

In the case of `CC[C@H](C)[C@@H]([C@@H](CC(=O)N1CCC[C@H]1[C@H](OC)[C@@H](C)C(=O)N[C@@H](Cc1c[nH]c2ccccc12)C(=O)N1CCCCO1)OC)N(C)C(=O)[C@@H](NC(=O)[C@H](C(C)C)N(C)CCCCCCN1C(=O)CC(SC[C@H](N)C(=O)O)C1=O)C(C)C` (stereo partly drawn) [Example 24, N-[6-(3-{[(2R)-2-Amino-2-carboxyethyl]sulphanyl}-2,5-dioxopyrrolidin-1-yl)hexyl]-N-methyl-L-valyl-N-[(3R,4S,5S)-1-{(2S)-2-[(1R,2R)-3-{[(2S)-3-(1H-indol-3-yl)-1-(1,2-oxazinan-2-yl)-1-oxopropan-2-yl]amino}-1-methoxy-2-methyl-3-oxopropyl]pyrrolidin-1-yl}-3-methoxy-5-methyl-1-oxoheptan-4-yl]-N-methyl-L-valinamide] (X2-V[Dil][Dolaproine]W-{Oxazinan2yl(1,2)}), the results for the “Tubulin polymerization” value in data set [2] (toxophore 1 μM) and in data set [2] (toxophore 10 μM) were 121% and 35%, respectively.

`CC[C@H](C)[C@@H]([C@@H](CC(=O)N1CCC[C@H]1[C@H](OC)[C@@H](C)C(=O)N[C@@H](Cc1ccc(O)cc1)C(=O)O)OC)N(C)C(=O)[C@@H](NC(=O)[C@H](C(C)C)N(C)CCCCCC(=O)NCCCC[C@H](N)C(=O)O)C(C)C` [Example 37, N-(6-{[(5S)-5-Amino-5-carboxypentyl]amino}-6-oxohexyl)-N-methyl-L-valyl-N-[(3R,4S,5S)-1-{(2S)-2-[(1R,2R)-3-{[(1S)-1-carboxy-2-(4-hydroxyphenyl)ethyl]amino}-1-methoxy-2-methyl-3-oxopropyl]pyrrolidin-1-yl}-3-methoxy-5-methyl-1-oxoheptan-4-yl]-N-methyl-L-valinamide trifluoroacetate] (X1-V[Dil][Dolaproine]Y-OH) showed a Papp B→A at 2 h in data set [3] of 0.09 ×10⁻⁶ cm/s.

In turn, `CC[C@H](C)[C@@H]([C@@H](CC(=O)N1CCC[C@H]1[C@H](OC)[C@@H](C)C(=O)N[C@@H](Cc1ccc(O)cc1)C(=O)N1CCCCO1)OC)N(C)C(=O)[C@@H](NC(=O)[C@H](C(C)C)N(C)CCCCCC(=O)NCCCC[C@H](N)C(=O)O)C(C)C` [Example 36, N-(6-{[(5S)-5-Amino-5-carboxypentyl]amino}-6-oxohexyl)-N-methyl-L-valyl-N-[(3R,4S,5S)-1-{(2S)-2-[(1R,2R)-3-{[(2S)-3-(4-hydroxyphenyl)-1-(1,2-oxazinan-2-yl)-1-oxopropan-2-yl]amino}-1-methoxy-2-methyl-3-oxopropyl]pyrrolidin-1-yl}-3-methoxy-5-methyl-1-oxoheptan-4-yl]-N-methyl-L-valinamide trifluoroacetate] (X1-V[Dil][Dolaproine]Y-{Oxazinan2yl(1,2)}) displayed a Papp B→A at 2 h in data set [3] of 0.15 ×10⁻⁶ cm/s.

As for `CC[C@H](C)[C@@H]([C@@H](CC(=O)N1CCC[C@H]1[C@H](OC)[C@@H](C)C(=O)N[C@@H](Cc1ccccc1)C(=O)O)OC)N(C)C(=O)[C@@H](NC(=O)[C@@H](NC)C(C)C)C(C)C` [monomethylauristatin F (MMAF), monomethylauristatin F, reference compound] (H-[NMeV]V[Dil][Dolaproine]F-OH), the “Tubulin polymerization” value in data set [2] (toxophore 1 μM) came out at 100%; in data set [2] (toxophore 10 μM) it was 34%. Moreover, the “Papp (B-A)” value in data set [1] is given as 73 nm/s.

Values taken from patent publication US20150023989A1, “NEW ANTIBODY DRUG CONJUGATES (ADCS) AND THE USE THEREOF” (SEATTLE GENETICS, INC., priority 2011, published 2015).
